Source: US7173062B2, “Method for the improvement of skin wrinkles using retinyl retinoate” (Enprani Co., Ltd., priority 2001, dated 2007)

How the values were obtained:
RXR α, β, γ = test: Activity for RXR (CAT reporter in HaCaT cells); assay type: cell-based; details: 1 μM, CAT ELISA, Control = 1.0
Protocol: (§1) The effect of the retinol derivatives on the activity of RAR and RXR was examined as follows.
(§2) Experimental procedure: Recombinant gene of DR5-tk-CAT or DR1-tk-CAT comprising DR1 or DR5 as a response element of RAR/RXR, […] promoter, and CAT (chloramphenicol acetyl transferase) was suitably combined with a plasmid DNA that expresses RAR α, β, γ and cotransfected to HaCaT cell line, a skin cancer cell line, with Lipofectamin (GibcoBRL). Then, the cells were incubated in DMEM/10% FBS medium for 1 day, retinol derivative was added in a concentration of 1 μM, and the cells were incubated again for 1 day under the condition of 5% CO2 and 37° C. The cells were washed with phosphate-buffered salione (PBS). Proteins were extracted from each cell, the activity of β-galactosidase was assayed, and the amount of protein was measured to determine the transfection efficiency. Further, the degree of transcription for RAR or RXR was analyzed by CAT ELISA (Roche Molecular Biochemicals, Mannheim, Germany).

RAR α = target: T1, RAR α (Homo sapiens, UniProt P10276); test: Activity for RAR α (CAT reporter in HaCaT cells); assay type: cell-based; details: 1 μM, CAT ELISA
T1 construct: expressed in transfected cells; host or cells: HaCaT
T1 sequence (P10276 1-462): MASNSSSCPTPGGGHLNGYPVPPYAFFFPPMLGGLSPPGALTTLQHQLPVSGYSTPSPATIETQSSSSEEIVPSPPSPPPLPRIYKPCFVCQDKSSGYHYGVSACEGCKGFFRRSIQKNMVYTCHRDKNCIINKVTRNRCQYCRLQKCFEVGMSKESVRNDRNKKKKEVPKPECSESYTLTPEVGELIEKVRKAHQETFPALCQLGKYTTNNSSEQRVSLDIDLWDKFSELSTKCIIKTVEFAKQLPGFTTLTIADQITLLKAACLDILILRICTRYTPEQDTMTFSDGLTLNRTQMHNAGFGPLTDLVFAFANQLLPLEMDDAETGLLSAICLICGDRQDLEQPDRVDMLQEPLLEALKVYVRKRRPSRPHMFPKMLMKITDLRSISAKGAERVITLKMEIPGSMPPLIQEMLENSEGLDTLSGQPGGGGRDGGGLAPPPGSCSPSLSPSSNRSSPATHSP
Protocol: as §1, §2

RAR γ = target: T2, RAR γ (Homo sapiens, UniProt P13631); test: Activity for RAR γ (CAT reporter in HaCaT cells); assay type: cell-based; details: 1 μM, CAT ELISA
T2 construct: expressed in transfected cells; host or cells: HaCaT
T2 sequence (P13631 1-454): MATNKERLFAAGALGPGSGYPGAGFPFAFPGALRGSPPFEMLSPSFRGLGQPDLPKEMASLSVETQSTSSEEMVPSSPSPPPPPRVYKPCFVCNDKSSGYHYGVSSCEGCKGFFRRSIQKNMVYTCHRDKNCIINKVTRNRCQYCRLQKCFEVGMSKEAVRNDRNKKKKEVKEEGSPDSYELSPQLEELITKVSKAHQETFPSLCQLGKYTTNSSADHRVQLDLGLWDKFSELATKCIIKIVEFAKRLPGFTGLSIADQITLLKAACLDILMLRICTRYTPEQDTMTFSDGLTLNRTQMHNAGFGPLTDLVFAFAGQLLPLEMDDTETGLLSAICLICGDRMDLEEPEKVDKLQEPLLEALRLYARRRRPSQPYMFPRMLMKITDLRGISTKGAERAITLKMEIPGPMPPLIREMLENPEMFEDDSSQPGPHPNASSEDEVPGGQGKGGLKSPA
Protocol: as §1, §2

[1] = test system: AP-1 (comprising c-Jun protein); test: Inhibition of activity of AP-1 protein (Coll-CAT collagenase promoter reporter in HaCaT cells); assay type: cell-based; details: for Relative inhibition against the expression of collagenase / effect on / inhibitory activity against c-Jun (AP-1), in words: HaCaT, Coll-CAT; for effect on / inhibitory activity against c-Jun (AP-1), in words: c-Jun / RAR α cotransfection
Protocol: AP-1 (comprising c-Jun protein) is a transcription factor inducing the expression of collagenase that is a major cause of skin wrinkles. […] Therefore, studies thereabout were carried out in a similar manner to Experiment 6 as follows.
Experimental procedure: CAT reporter (Coll-CAT) having the collagenase promoter wherein AP-1 response element (TRE) is contained, was transfected into HaCaT cell line, a skin cancer cell line, using a liposome. Then, the degree of inhibition against the activity of AP-1 by retinol derivatives was measured through CAT ELISA in a similar manner to Experiment 6. Further, the effect of retinol derivatives on the transcriptional activity of c-Jun (a protein that induces transfer of cancer, skin aging and inflammation, and consists of homologous isomers or heterologous isomers), a constitutional element of AP-1, was examined by cotransfecting c-Jun or RAR α expression vector.

RAR β = target: T3, RAR β (Homo sapiens, UniProt P10826); test: Activity for RAR β (CAT reporter in HaCaT cells); assay type: cell-based; details: 1 μM, CAT ELISA
T3 construct: expressed in transfected cells; host or cells: HaCaT
T3 sequence (P10826 1-455): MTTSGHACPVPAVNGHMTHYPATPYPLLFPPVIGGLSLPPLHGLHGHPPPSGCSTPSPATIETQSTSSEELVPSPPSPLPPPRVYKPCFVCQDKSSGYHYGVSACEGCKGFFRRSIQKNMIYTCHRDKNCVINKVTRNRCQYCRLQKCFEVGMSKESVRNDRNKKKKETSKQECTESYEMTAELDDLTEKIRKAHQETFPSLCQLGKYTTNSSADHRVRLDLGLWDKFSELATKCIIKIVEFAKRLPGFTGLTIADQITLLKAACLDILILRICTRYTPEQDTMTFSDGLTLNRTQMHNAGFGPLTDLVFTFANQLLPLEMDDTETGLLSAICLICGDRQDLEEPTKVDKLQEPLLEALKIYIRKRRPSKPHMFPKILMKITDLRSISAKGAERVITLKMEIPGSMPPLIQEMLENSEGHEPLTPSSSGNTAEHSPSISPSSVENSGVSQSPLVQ
Protocol: as §1, §2

[2] = Photostability test (UV-A 356 nm, 1H NMR); assay type: physicochemical; design: key: 4 = No qualitative change in ^1H NMR spectrum; 3 = Minute noise but no qualitative change in ^1H NMR spectrum; 2 = Clear noise and some qualitative change in ^1H NMR spectrum; 1 = Qualitative confirmation is difficult in ^1H NMR spectrum; details: room temperature
Protocol: In order to examine photostability of the compound of formula (1) compared with retinol, 10 mg of sample was irradiated by UV-A light (wavelength 356 nm) using a Spectroline (Model CM-10; Fluorescence analysis cabinet; Spectronics Corporation, Westbury, N.Y., USA) at certain intervals of time at room temperature.

skin of normal adults = test: Test for skin irritation property (closed patch test); assay type: in vivo, human; details: closed patch test 24 hours, 20 adults
Protocol: In order to examine the skin irritation of the compound of formula (1), a patch test for the skin of normal adults was carried out. As the carrier, capryl caprylic triglyceride or the conventional O/W formulation was used, and twenty (20) adults per a group were tested for 24 hours.
The conventional O/W formulation used in the present experiment was prepared according to the following procedure.
Each of the aqueous part of Nos. 1–6 and the oily part of Nos. 7–13 as shown in the following Table 1 was heated to 75–80° C. to be thoroughly dissolved. The oily part was slowly added to the aqueous part and emulsification was performed for 5 minutes at 75–80° C. in a homomixer of 3000rpm. During the emulsification, the mixture was neutralized by the neutralizing agent of No. 14. After the first emulsification, the mixture was cooled, the retinal retaliate and fragrance of Nos. 15–16 were added at 50–55° C., and then the second emulsification was carried out for 3 minutes in a homomixer of 3000rpm. The mixture was cooled again to 27–30° C. to prepare the composition of O/W formulation.
From the experimental results, the irritation indexes were calculated according to the following Equation 1 and the results are represented in the following Table 2. Irritation index={Σ(Test Value×Number of Examinees Corresponding to the Test Value)/(Total Examinees×The Maximum Test Value)×100 Equation 1
Test Value +++: 5, ++: 4, +: 3, +−: 2, −:1
The degree of irritation was determined according to the following standards:
1.9 or less: Minute irritation, 2.0–2.9: Weak irritation, 3.0–3.9: Moderate irritation, 4.0 or more: Strong irritation

[3] = test system: Normal human fibroblast (Newborn, passage: 6); test: Collagen synthesis test (Sircol collagen assay); assay type: cell-based; details: 0.000001%, 0.00001%(w/v); human fibroblast
Protocol: The effect for collagen synthesis of the compound of formula (1) was examined by using retinol, retinoic acid, and derivatives thereof as comparison compounds to confirm its utility as inhibitors for skin aging as follows. The results are represented in FIG. 2.
Cell: Normal human fibroblast (Newborn, passage: 6)
Medium: DMEM containing 10% FBS→DMEM free of FBS was used when cells were treated with samples.
Concentration: A range of concentration where the samples exert no toxicity to the cells was selected through a cell toxicity test ? 0.000001%, 0.00001%(w/v)
Procedure: 1×10^5 cells/well were inoculated into a 6-well plate. Cells were cultured to show about 79–80% confluent. Cells were treated with test samples and incubated for 2 days (FBS was not added to the medium when cells were treated with samples). After 2 days, cell medium and cells were separated from each other and respectively stored in a refrigerator. The cell extract was subjected to the protein analysis (BCA Protein Assay Kit, PIERCE 23225) and the medium was subjected to collagen analysis.
After the medium was removed, a small amount of PBS was added. Cells were scraped with a scraper. 1N NaOH (100 μl) and distilled water (400 μl) were added and the resulting mixture was allowed to stand overnight. Then, the protein analysis was carried out.
Collagen analysis: Analysis kit (Sircol Collagen assay kit—a dye that specifically combines with soluble collagen is used)
1.0 ml of Sircol Dye Reagent was introduced into each tube and mixed for 30 minutes. The mixture was centrifuged for 10 minutes at 5,000 g or more and the supernatant was removed. 1.0 ml Sircol Alkali Reagent was added, slowly mixed, and absorbance at 540 nm was measured. The amount of protein was converted into the value of collagen analysis (see: Mechanism of Aging and Development 73, 179–187, 1994).
After the above experiment, the increasing ratio for collagen synthesis of the test group over the control group treated only by DMEM was depicted in FIG. 2.

[4] = Control = 1.0, listed as retinal salicylate
[5] = Condition of expression: c-Jun + RAR α, untreated = 8.6
[6] = Condition of expression: c-Jun, untreated = 8.6
[7] = Condition of expression: — (no c-Jun or RAR α vector), untreated = 1.0
[8] = Control = 1.0, listed as retinal acetyl salicylate

| SMILES | Relative activity against RXR α, β, γ (RXR α, β, γ) | Relative activity against RAR α (RAR α; Control = 1.0) | Relative activity against RAR γ (RAR γ; Control = 1.0) | Relative inhibition against the expression of collagenase [1, 5] | Relative inhibition against the expression of collagenase [1, 6] | Relative inhibition against the expression of collagenase [1, 7] | effect on / inhibitory activity against c-Jun (AP-1), in words [1] | Relative activity against RAR β (RAR β; Control = 1.0) | further results |
| --- | --- | --- | --- | --- | --- | --- | --- | --- | --- |
| CC1=C(/C=C/C(C)=C/C=C/C(C)=C/COC(=O)c2ccccc2O)C(C)(C)CCC1 [Retinyl salicylate] | 1.0 | 3.2 | 1.0 | 8.8 | 8.7 | 1.0 | no effect | 1.1 | Relative activity against RAR α (RAR α; [4]): low activity; Relative activity against RAR γ (RAR γ; [4]): no activity; Relative activity against RAR β (RAR β; [4]): no activity |
| CC1=C(/C=C/C(C)=C/C=C/C(C)=C/C(=O)O)C(C)(C)CCC1 [Retinoic acid] | 9.5 | 37.0 | 3.0 | 3.1 | 5.4 | 0.6 | – | 4.0 | inhibition of the expression of collagenase ([1]; cells treated together with RAR α (c-Jun expressed)): about 64% |
| CC1=C(/C=C/C(C)=C/C=C/C(C)=C/C(=O)OC(=O)/C=C(C)/C=C/C=C(C)/C=C/C2=C(C)CCCC2(C)C)C(C)(C)CCC1 | – | – | – | – | – | – | – | – | Photostability level ([2]; After 0 hour, 10 mg sample): 4; Photostability level ([2]; After 2 hours): 3; Photostability level ([2]; After 12 hours): 2; Photostability level ([2]; After 24 hours): 2; Photostability level ([2]; After 48 hours): 2 |
| CC(=O)Oc1ccccc1C(=O)OC/C=C(C)/C=C/C=C(C)/C=C/C1=C(C)CCCC1(C)C [Retinyl acetyl salicylate] | 1.1 | 2.5 | 1.0 | 8.7 | 8.5 | 1.0 | no effect | 1.0 | Relative activity against RAR α (RAR α; [8]): low activity; Relative activity against RAR γ (RAR γ; [8]): no activity; Relative activity against RAR β (RAR β; [8]): no activity |
| CCCCCCCCCCCCCCCC(=O)OC/C=C(C)/C=C/C=C(C)/C=C/C1=C(C)CCCC1(C)C [Retinyl Palmitate] | – | – | – | – | – | – | – | – | Degree of Irritation (skin of normal adults; 0.138% in C.C.T): Moderate irritation (3.0–3.9: Moderate irritation); Irritation Index (skin of normal adults; 0.138% in C.C.T): 3.8; Degree of Irritation (skin of normal adults; 0.55% in C.C.T): Strong irritation (4.0 or more: Strong irritation); Irritation Index (skin of normal adults; 0.55% in C.C.T): 4.5; effect for collagen synthesis (FIG. 2), comparison in words [3]: much lower effect for collagen synthesis than retinol |
